These results are taken from PMC9695821, “Synthesis and Evaluation of NF-κB Inhibitory Activity of Mollugin Derivatives” (Molecules, 2022).

Marks after values point to notes of the source that are not given here.

The melting point is the temperature, or range, at which the solid turns liquid. One may read the IC50 as the concentration that gives 50% inhibition.

In data set [1] the test system is xylene-induced ear edema. The data set can be described thus: Xylene-induced ear edema test, initial screening (i.p.). The data set is classed as in vivo. The settings on record: mice; for inhibition in vivo at 100 mg/kg: Mus musculus, ip, 0.5 h, n = 6, read-out: Inhibition Rate. The procedure: In vivo inhibition test of xylene induced ear edema in mice was performed to evaluate its anti-inflammatory activity.
In the initial screening, mice (male) were randomly divided into experimental group, positive control drug ibuprofen and Mesalazine group, and blank group. All target compounds were dissolved in dimethyl sulfoxide, and corresponding drugs were intraperitoneally injected into experimental group, positive control group and blank group, respectively. Mice were treated with 100 mg/kg, 0.1 mL/20 g body weight, and control mice received only DMSO (0.1 mL/20 g body weight). After 30 min, 20 μL of xy-lene was evenly applied on both sides of the right ear of the mice. After 30 min of xy-lene was applied, the mice were sacrificed by cutting off their necks. Then the left and right ears of the mice were drilled with a hole punch with a diameter of 7 mm, respec-tively, to obtain two round ear pieces. The degree of swelling (right ear mass–left ear mass) was calculated for each sample, and the swelling inhibition rate of each drug was calculated using the following formula. The inhibition rate of swelling degree (%) = (mean ear swelling degree of mice in blank group […] mean ear swelling degree of mice in target compound group)/mean ear swelling degree of mice in blank group × 100%. The data were processed by GraphPadPrism 5 and expressed as mean data ± SEM. One-way ANOVA method was used for statistical analysis of relevant data. A value of p < 0.05 in the chart indicates significant and statistically significant data dif-ference.

For data set [2], the system named is NF-κB transcriptional activity. The experiment in a line: NF-κB luciferase reporter assay in HeLa cells. The data set is classed as cell-based. The settings on record: for IC50: Homo sapiens, NF-κB luciferase reporter, 24 h treatment, hypoxic conditions, mean, n = 3. The procedure:
A NF-κB-Luc plasmid for NF-κB luciferase reporter assay was obtained from Strategene (La Jolla, CA, USA). Transfections were performed as previously described. NF-κB-dependent luciferase activity was measured using the Dual-luciferase reporter assay system. Briefly, HeLa cells (1 × 10^5 cells/well) were seeded in a 96-well plate for 24 h. The cells were then transfected with plasmids for each well and then incubated for a transfection period of 24 h. […] Luciferase activity was determined in MicroLumat plus luminometer (EG&G Berthold, Bad Wildbad, Germany) by injecting 100 µL of assay buffer containing luciferin and measuring light emission for 10 s. Co-transfection with pRL-CMV (Promega, Madison, WI, USA), which expresses Renilla luciferase, was performed to enable normalization of data for transfection efficiency.
On the technique in general: Reporter assays use an easily measured gene product as a stand-in for the process of interest.

In data set [3] the test system is HeLa cells. The experiment in a line: MTT cytotoxicity / cell viability assay. The data set is classed as cell-based. The settings on record: for IC50 Cytotoxicity: MTT assay, 24 h treatment, normoxic conditions, mean, n = 3. As for the experimental part:
(§1) HeLa cells were inoculated and cultured in 96-well plates. After the cells adhered to the wall, the prepared target compounds with different concentrations were added to all plates for 24 h and then cultured in 5 mg/mL MTT solution for 4 h. The culture solution in the holes was sucked out, and DMSO reagent was added. After the crystallization was fully dissolved, the absorbance at 570 nm was measured by Multiskan GO.
(In general: Tetrazolium assays rely on reduction of a dye to a coloured formazan, in cell work by metabolically active cells.)

A short description of data set [4]: MTT cytotoxicity / cell viability assay. The settings on record: human; MTT assay, HeLa cells, 24 h treatment, normoxic conditions; mean, n = 3. The data set is classed as cell-based. As for the experimental part: as §1
In data set [5] the test system is xylene-induced ear edema. The experiment in a line: Xylene-induced ear edema test, deep screening (oral). The data set is classed as in vivo. The settings on record: mice. The procedure: In the deep screening, mice were divided into target compound group, positive control group (ibuprofen), and blank group (8 male mice in each group). Target com-pound and ibuprofen were dissolved in sodium carboxymethyl cellulose aqueous solu-tion (sodium carboxymethyl cellulose to water, mass ratio 1:1000); the blank group was sodium carboxymethyl cellulose aqueous solution (sodium carboxymethyl cellu-lose to water, mass ratio 1:1000). The anti-inflammatory activities of each compound in the target compound group, positive control group, and blank group were measured at 1, 2, 3, 4, 6, 9, 12 and 24 h after taking the drug. The experimental operation and calculation method are the same as the initial screening part.

Data set [6] concerns p65. The data set can be described thus: Western blot of nuclear extracts, TNF-α-induced p65. The data set is classed as cell-based. (Immunoblotting shows a protein as a band on a membrane.)

As to `COC(=O)c1c2c(c3ccccc3c1OCC(=O)Nc1ccc(F)cc1)OC(C)(C)C=C2` [Compound 4f, Methyl 6-(2-((4-fluorophenyl)amino)-2-oxoethoxy)-2,2-dimethyl-2H-benzo [h] chromene-5-carboxylate], the melting point was 132 to 134 °C. In data set [1], the inhibition in vivo at 100 mg/kg was 83.1%. For the same compound, in data set [1] (100 mg/kg, n = 6), the “Edema Mean ± SD” value is 1.1167 ± 0.2544 mg. Besides, the midpoint of inhibition in data set [2], the IC50, lay at 18.5 µM. Moreover, the “IC50 Cytotoxicity” value in data set [3] was “no significant cell toxicity”. The IC50 at 24 h in data set [4] is more than 100 µM. The same compound registered an Inhibition in data set [5] (100 mg/kg, time 1 h) of 27.53% ***. The Inhibition in data set [5] (100 mg/kg, time 2 h) is 37.12% ***. Besides, the Inhibition in data set [5] (100 mg/kg, time 3 h) is recorded as 46.46% ***. The compound also displayed an Inhibition in data set [5] (100 mg/kg, time 4 h) of 58.08% ***. This compound also returned an Inhibition in data set [5] (100 mg/kg, time 9 h) of 43.94% ***. Further, the Inhibition in data set [5] (100 mg/kg, time 12 h) is reported as 35.35% ***. Moreover, the Inhibition in data set [5] (100 mg/kg, time 24 h) is given as 26.01% ***. The compound further gave an Inhibition in data set [5] (dose series, 25 mg/kg, 6 h) of 46.46% **. For the same compound, the Inhibition in data set [5] (dose series, 50 mg/kg, 6 h) was determined as 53.08% ***.
With `COC(=O)c1c2c(c3ccccc3c1OCC(=O)Nc1ccc3ncccc3c1)OC(C)(C)C=C2` [Compound 6d, Methyl 2,2-dimethyl-6-(2-oxo-2-(quinolin-6-ylamino)ethoxy)-2H-benzo [h] Chromene-5-carboxylate], the melting point fell in the range of 135 to 137 °C. Moreover, in data set [1], the inhibition in vivo at 100 mg/kg is 76.8%. Moreover, in data set [6] (HeLa cells, 100 µM), the “TNF-α-induced expression of p65” value is “inhibited TNF-α-induced expression of p65”. In data set [6] (HeLa cells, 10, 30, 100 µM for 12 h, then 10 ng/mL TNF-α 30 min, nuclear extracts), the “TNF-α-induced p65 phosphorylation” value was “significantly inhibited TNF-α-induced p65 phosphorylation in a dose-dependent manner”. For the same compound, the “inhibition of NF-κB luciferase activity, dose dependence” value in data set [2] (Figure 2A) is reported as “dose-dependent inhibition”. Further, the IC50 in data set [2] was determined as 3.81 µM. The cell viability entry in data set [3] (30 µM, 24 h, Figure 2B) was “did not adversely affect the cell viability”. For the same compound, in data set [3], the “IC50 Cytotoxicity” value is given as “did not show any significant cytotoxicity”. Moreover, in data set [4], the IC50 at 24 h was more than 100 µM. The Inhibition in data set [5] (100 mg/kg, time 1 h) is listed as 25.76% ***. The compound also gave an Inhibition in data set [5] (100 mg/kg, time 2 h) of 33.84% ***. In data set [5] (100 mg/kg, time 3 h), the Inhibition is listed as 41.92% ***. The same compound displayed an Inhibition in data set [5] (100 mg/kg, time 4 h) of 52.53% ***. In data set [5] (100 mg/kg, time 9 h), the Inhibition amounted to 37.63% ***. For the same compound, in data set [5] (100 mg/kg, time 12 h), the Inhibition worked out at 31.82% ***. In addition, the Inhibition in data set [5] (100 mg/kg, time 24 h) amounted to 25.25% ***. In addition, the Inhibition in data set [5] (dose series, 25 mg/kg, 6 h) turned out to be 41.92% **. For the same compound, the Inhibition in data set [5] (dose series, 50 mg/kg, 6 h) was found to be 46.32% ***.
